In publication PMC9864769, “Identification of Lignan Compounds as New 6-Phosphogluconate Dehydrogenase Inhibitors for Lung Cancer” (Metabolites, 2022):

Biological target: T1, 6-phosphogluconate dehydrogenase (6-PGD) (Homo sapiens, UniProt P52209)
T1 construct: native enzyme purified from human erythrocytes
T1 sequence (P52209 1-483): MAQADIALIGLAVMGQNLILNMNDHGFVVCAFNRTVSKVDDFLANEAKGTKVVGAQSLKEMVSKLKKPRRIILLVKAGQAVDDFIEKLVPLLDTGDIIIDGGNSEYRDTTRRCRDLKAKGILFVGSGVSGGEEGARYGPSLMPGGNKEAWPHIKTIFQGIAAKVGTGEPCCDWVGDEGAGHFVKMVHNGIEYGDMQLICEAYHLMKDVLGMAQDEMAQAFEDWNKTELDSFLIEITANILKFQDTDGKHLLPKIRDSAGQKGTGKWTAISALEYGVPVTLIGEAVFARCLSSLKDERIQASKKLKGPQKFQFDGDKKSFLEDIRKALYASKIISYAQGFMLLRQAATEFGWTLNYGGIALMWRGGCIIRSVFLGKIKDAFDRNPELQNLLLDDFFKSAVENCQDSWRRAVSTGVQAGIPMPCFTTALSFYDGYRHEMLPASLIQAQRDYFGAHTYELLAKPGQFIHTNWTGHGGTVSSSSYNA
Experiment: enzyme activity assay (NADPH absorbance at […] nm) on 6-PGD purified from human erythrocytes; also A549 lysate assay
Type: biochemical
Settings: read-out: % reduction of activity at 200 μg/mL

Row | inhibition at 200 µg/mL | Structure (SMILES)
1 | 70% | COc1cc([C@H]2Oc3c(OC)cc4ccc(=O)oc4c3O[C@@H]2CO)ccc1O [cleomiscosin A]
2 | 76.3% | COc1cc([C@H]2OC[C@H]3[C@@H]2CO[C@@H]3c2cc(OC)c(O)c(OC)c2)cc(OC)c1O [syringaresinol]
